# Measurements published in PMC3663535, “Substrate Selectivity of the Acid-activated Glutamate/γ-Aminobutyric acid (GABA) Antiporter GadC from Escherichia coli” (The Journal of Biological Chemistry, 2013).
# Target: T1, WT GadC (Escherichia coli, UniProt P63235)
# T1 construct: full-length wild type; hexahistidine tag proteolytically removed; recombinant, reconstituted in E. coli polar lipid proteoliposomes
# Test: proteoliposome Gln/GABA exchange with membrane potential
# Type: biochemical
# Details: 5 mM internal GABA, efflux followed through influx of 50 μM external [3H]Gln; pH 5.5
# T1 sequence (P63235 whole entry): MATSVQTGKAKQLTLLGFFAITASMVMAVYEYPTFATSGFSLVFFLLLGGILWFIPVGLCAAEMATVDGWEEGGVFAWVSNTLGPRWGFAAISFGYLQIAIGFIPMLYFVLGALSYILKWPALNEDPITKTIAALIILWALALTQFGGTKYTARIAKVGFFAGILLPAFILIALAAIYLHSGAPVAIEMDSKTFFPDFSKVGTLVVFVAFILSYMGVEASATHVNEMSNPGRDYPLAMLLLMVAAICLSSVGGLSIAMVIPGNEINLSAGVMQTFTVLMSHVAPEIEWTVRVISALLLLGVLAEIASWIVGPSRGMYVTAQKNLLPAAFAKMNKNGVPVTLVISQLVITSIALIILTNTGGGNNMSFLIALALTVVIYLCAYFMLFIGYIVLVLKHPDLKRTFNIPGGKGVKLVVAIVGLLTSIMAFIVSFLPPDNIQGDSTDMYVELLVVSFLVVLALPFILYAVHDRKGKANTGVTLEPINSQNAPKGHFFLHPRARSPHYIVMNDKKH
structure (smiles),measurement,value
NCCCC(=O)O [GABA],proteoliposome Gln/GABA exchange with membrane potential,confirm our prediction that GABA^+ is the transport substrate for GadC
